From ChEMBL document CHEMBL4610046, “Diacyl disulfides as the precursors for hydrogen persulfide (H2S2)” (Bioorg Med Chem Lett, 2020) come the findings set out here.

Series [1] is described as follows: Induction of DPPH reduction by H2S2 generated from parent compound by UV spectrometry. Details: scale not given: the % may be the effect or the level left. (Loss of DPPH colour is used to gauge radical scavenging.)
Series [2] can be described thus: Stability of compound assessed as compound decomposition at 4 degree C measured after 3 weeks. The note with it: 504 h. Type of series: physicochemical.
The nature of series [3]: Stability of compound in DCM incubated at room temperature. Type of series: physicochemical.
A short description of series [4]: Stability of compound in THF incubated at room temperature. Type of series: physicochemical.
Series [5] can be described thus: Drug metabolism in PBS buffer assessed as hydrolysis at pH 7.4 in presence of 25 uM CTAB by DSP-3 probe based fluorescence assay. It counts as physicochemical.
For series [6], the system named is PC-3. Put plainly: Induction of H2S generation in human PC3 cells at 100 uM measured after 30 mins by DSP-3 probe based fluorescence assay. Type of series: functional, cell-based.
For series [7], the system named is PC-3. Put plainly: Induction of H2S generation in human PC3 cells at 100 uM pretreated with thiol blocking reagent NEM for 30 mins followed by lysine treatment for 20 mins and subsequent compound treatment after 30 mins by DSP-3 probe based fluorescence assay. It counts as functional, cell-based.
The nature of series [8]: Cysteine reactivity in human PC3 cells under physiological conditions. Type of series: ADME, cell-based. The note with it: pc-3.
Series [9] deals with PC-3. Put plainly: Induction of H2S2 generation in human PC3 cells at 100 uM measured after 30 mins by DSP-3 probe based fluorescence assay. Type of series: functional, cell-based.
Series [10] can be described thus: GSH reactivity in human PC3 cells under physiological conditions. To be noted: pc-3. Type of series: ADME, cell-based.
Series [11] concerns PC-3. Put plainly: Induction of H2S2 generation in human PC3 cells at 100 uM pretreated with thiol blocking reagent NEM for 30 mins followed by lysine treatment for 20 mins and subsequent compound treatment after 30 mins by DSP-3 probe based fluorescence assay. It counts as functional, cell-based.
Series [12] concerns HeLa. Put plainly: Induction of H2S generation in human HeLa cells at 100 uM measured after 30 mins by DSP-3 probe based fluorescence assay. Type of series: functional, cell-based.
For series [13], the system named is HeLa. Put plainly: Induction of H2S2 generation in human HeLa cells at 100 uM pretreated with thiol blocking reagent NEM for 30 mins followed by lysine treatment for 20 mins and subsequent compound treatment after 30 mins by DSP-3 probe based fluorescence assay. It counts as functional, cell-based.
The test system of series [14] is HeLa. Put plainly: Induction of H2S2 generation in human HeLa cells at 100 uM measured after 30 mins by DSP-3 probe based fluorescence assay. Type of series: functional, cell-based.
Series [15] relates to HeLa. Put plainly: Induction of H2S generation in human HeLa cells at 100 uM pretreated with thiol blocking reagent NEM for 30 mins followed by lysine treatment for 20 mins and subsequent compound treatment after 30 mins by DSP-3 probe based fluorescence assay. It counts as functional, cell-based.

The source made the active and inactive calls. No cut-off for these calls is given here.

In the case of `CC[Si](CC)(CC)OC(S)C(C)C` (centres undefined), the Activity in [1] came to 15%.
Still for that read-out and setting: under `CC[Si](CC)(CC)OC(SSC(O[Si](CC)(CC)CC)C(C)C)C(C)C` (centres undefined) stands 30%.
For `O=C(Cc1ccccc1)SSC(=O)Cc1ccccc1`, the Stability result in series [2], in series [3] and in series [4] was “Stable” in each case.
With `NCCN`, the Activity in series [1] worked out at 40%.
`CC(C)(C(=O)SSC(=O)C(C)(C)c1ccccc1)c1ccccc1`: the Stability result in series [2], in series [3] and in series [4] was “Stable” in each case. Also, in series [5], the Drug metabolism entry is “Metabolite_Notdetected”.
`CC(=O)SSC(C)=O`: the Stability result in series [2], in series [3] and in [4] was “Stable” each time. In addition, the result with PC-3 [6], in the series with PC-3 [7], in the series with PC-3 [9], in the series on PC-3 [11], with HeLa [12] and with HeLa [13] was Active. For the same molecule, the outcome in the series with HeLa [14] and in the series with HeLa [15] was Active. In addition, the Drug metabolism entry in series [8] and in series [10] was “Active” throughout. For the same molecule, the Activity in series [1] stood at 40%.
